Common to all, as to assay type: cell-based
Test [1] concerns estrogen receptor reporter gene. The test is described as follows: Inhibition of estrogen receptor reporter gene activity (ERE-luc luciferase) in MCF7/ERE-luc cells. Particulars: Homo sapiens, 0.1 nM β-estradiol, 20 hours, read-out: IC50 of inhibitory activity on the activity of the estrogen receptor reporter gene. As to the method:
MCF7 cells MCF7/ERE-luc (ATCC, HTB-22) expressing the luciferase reporter gene ERE-luc (synthesized by GENEWIZ, Inc.) controlled by the estrogen receptor response element were cultured in MEM (GE Healthcare, SH30024.01) medium containing 10% fetal bovine serum and 500 µg/ml G418. On the first day of the experiment, MCF7/ERE-luc cells were seeded in a 96-well plate with incomplete MEM medium containing 10% fetal bovine serum treated with activated charcoal (BioSun, BS-0004-500) at a density of 30,000 cells/well (100 μl of cell suspension per well), and the plate was incubated in a cell incubator at 37° C. and 5% CO2 overnight. On the second day, 10 μl of β-estradiol (SIGMA, E2758-250MG) solution formulated with the above incomplete medium or test compound solution of different concentrations formulated with the above incomplete medium was added to each well, wherein the final concentration of β-estradiol was 0.1 nM, and the final concentrations of the compound were nine concentration points obtained by a 10-fold gradient dilution starting from 10 μM, a blank control containing 0.5% DMSO was set, and the plate was incubated in a cell incubator at 37° C. and 5% CO2 for 20 hours. On the third day, the 96-well plate was taken out, and 100 μl of ONE-Glo™ Luciferase Assay system (Promega, E6110) was added to each well to determine the activity of luciferase. The plate was left to stand at room temperature for 3 minutes until the cells were fully lysed, and the luminescence signal values were measured using a multi-label microplate reader (PerkinElmer, VICTOR 3). The IC50 values of the inhibitory activity of the compounds were calculated using Graphpad Prism software based on the concentrations and luminescence signal values of the compounds.
The inhibitory effect of the compounds of the present disclosure on the activity of the estrogen receptor reporter gene was determined by the above test. A graph of the chemiluminescence signal values versus the logarithmic concentrations of the compound was made using Graghpad Prism.
A general note: In a reporter assay the amount or activity of a reporter protein is the signal.

The next test deals with MCF7 cell. In words: Inhibition of proliferation of MCF7 cell (CellTiter-Glo, 144 hours). Particulars: Homo sapiens; for IC50: MCF7, CellTiter-Glo, read-out: IC50 of the inhibitory effect on the proliferation of MCF7 cell; for Emax: MCF7 cell proliferation, read-out: Maximum inhibition. As to the method:
(§1) MCF7 cells (ATCC, HTB-22) were cultured in MEM (GE Healthcare, SH30024.01) complete medium containing 10% fetal bovine serum. On the first day of the experiment, MCF7 cells were seeded in a 96-well plate with the complete medium at a density of 3,000 cells/well (100 μl of cell suspension per well), and the plate was incubated in a cell incubator at 37° C. and 5% CO2 overnight. On the second day, the medium in each well was replaced with 135 μl of MEM incomplete medium containing 2% fetal bovine serum. 15 μl of test compound solution of different concentrations formulated with the incomplete medium was added to each well, wherein the final concentrations of the compound were nine concentration points obtained by a 4-fold gradient dilution starting from 100 nM. A blank control containing 0.5% DMSO was set. The plate was incubated in a cell incubator at 37° C. and 5% CO2 for 144 hours. On the eighth day, the 96-well plate was taken out, and 150 μl of CellTiter-Glo® Luminescent Cell Viability Assay (Promega, G7573) was added to each well. The plate was left to stand at room temperature for 10 minutes, and the luminescence signal values were measured using a multi-label microplate reader (PerkinElmer, VICTOR 3). The IC50 values of the inhibitory activity of the compounds were calculated based on the concentrations and luminescence signal values of the compounds using Graphpad Prism software.
A graph of the chemiluminescence signal values versus the logarithmic concentrations of the compound was made using Graghpad Prism to obtain the IC50 values of the compound.
Background: ATP-based viability assays read luminescence as a measure of living cells.

In a further test the test system is MCF7 D538G. In words: Inhibition of proliferation of MCF7 cell expressing ERα D538G mutant. Particulars: Homo sapiens, 144 hours; for Emax: read-out: Maximum inhibition.
Source text: (§2) The mutants ERα Y537S and ERα D538G of human estrogen receptor α (ERαs) protein were obtained by site-directed mutagenesis using the cDNA of wild-type ESR1 gene (Accession No. NM000125) as a template according to double-primer PCR. The primer sequences used for mutagenesis are as follows (the nucleotides underlined are the sites of mutagenesis):
(§3) The cDNA of mutant ESR1 was cloned into the target lentiviral vector pCDH-CMV-MCS-EF1-Puro (SBI, CD510B-1). The lentiviral plasmid with the mutant ESR1 gene sequence and the lentiviral packaging plasmids pVSV-G and pCMV-dR8.91 (SBI, LV500A-1) were transfected into HEK-293T cells (ATCC, CRL-3216) by Lipofectamine 3000 Transfection Reagent (ThermoFisher Scientific, Cat #L3000075). 48 hours after the transfection, the supernatant of the virus-containing DMEM high-glycemic medium (GE Healthcare, SH30243.01) containing 10% FBS was filtered, and ultracentrifuged to obtain the virus pellet. The virus pellet was resuspended in an appropriate amount of MEM medium (GE Healthcare, SH30024.01) containing 10% FBS, non-essential amino acids (SIGMA, M7145-100ML) and sodium pyruvate (SIGMA, S8636-100ML), and the resulting suspension was added to MCF7 cells (ATCC, HTB-22). Polybrene (SIGMA, H9268-5G) at a final concentration of 8 µg/ml was added, and the cells were incubated overnight. Two days after the transfection, […] puromycin (invitrogen, A11138-03) was added to the cell culture medium for resistance screening. After about two weeks, the MCF7 cell line capable of stably expressing ERαY537S and ERα D538G mutants was obtained.
as §1, with “MCF7 cells expressing ERα mutant were cultured” for “MCF7 cells (ATCC, HTB-22) were cultured”, “the experiment, the cells were” for “the experiment, MCF7 cells were”, “control containing 0.500 DMSO was” for “control containing 0.5% DMSO was”, “C. and […] for” for “C. and 5% CO2 for”, “and 150 of CellTiter-Glo®” for “and 150 μl of CellTiter-Glo®”

A further test has as its system MCF7 ERαY537S. In words: Inhibition of proliferation of MCF7 cell expressing ERα Y537S mutant. Particulars: Homo sapiens, 144 hours; for Emax: read-out: Maximum inhibition.
Source text: as §2, §3
as §1, with “MCF7 cells expressing ERα mutant were cultured” for “MCF7 cells (ATCC, HTB-22) were cultured”, “the experiment, the cells were” for “the experiment, MCF7 cells were”, “control containing 0.500 DMSO was” for “control containing 0.5% DMSO was”, “C. and […] for” for “C. and 5% CO2 for”, “and 150 of CellTiter-Glo®” for “and 150 μl of CellTiter-Glo®”

Turning to `O=C(/C=C/CN1CCC[C@@H](Oc2ccc(/C(=C(/CC(F)(F)F)c3ccccc3)c3ccc4[nH]nc(F)c4c3)cn2)C1)NC1CCOCC1` [Example 13, (E)-N-(Tetrahydro-2H-pyran-4-yl)-4-((R)-3-((5-((Z)-4,4,4-trifluoro-1-(3-fluoro-1H-indazol-5-yl)-2-phenylbut-1-en-1-yl)pyridin-2-yl)oxy)piperidin-1-yl)but-2-enamide], the IC50 in test [1] is 3 nM; in the test on MCF7 cell, 0.6 nM; in the test with MCF7 D538G, 3 nM; in the test on MCF7 ERαY537S, 5 nM. In addition, the figures for the Emax in the test with MCF7 cell, with MCF7 D538G and with MCF7 ERαY537S were 88%, 107% and 104%, respectively.
For the compound `CC(C)(C)NC(=O)/C=C/CN1CCC[C@@H](Oc2ccc(/C(=C(/CC(F)(F)F)c3ccccc3)c3ccc4[nH]nc(F)c4c3)cn2)C1` [Example 16, (E)-N-(Tert-butyl)-4-((R)-3-((5-((Z)-4,4,4-trifluoro-1-(3-fluoro-1H-indazol-5-yl)-2-phenylbut-1-en-1-yl)pyridin-2-yl)oxy)piperidin-1-yl)but-2-enamide], the IC50 in test [1] was found to be 5 nM; in the test on MCF7 cell, 0.8 nM; in the test on MCF7 D538G, 2 nM; with MCF7 ERαY537S, 4 nM. Besides, the Emax in the test with MCF7 cell is 102%; with MCF7 D538G, 110%; in the test with MCF7 ERαY537S it was 88%.
`O=C(/C=C/CN1CCC[C@@H](Oc2ccc(/C(=C(/CC(F)(F)F)c3ccccc3)c3ccc4[nH]nc(F)c4c3)cn2)C1)NC1CCCC1` [Example 17, (E)-N-Cyclopentyl-4-((R)-3-((5-((Z)-4,4,4-trifluoro-1-(3-fluoro-1H-indazol-5-yl)-2-phenylbut-1-en-1-yl)pyridin-2-yl)oxy)piperidin-1-yl)but-2-enamide]: the IC50 in test [1] stood at 6 nM; in the test on MCF7 cell, 0.6 nM; in the test with MCF7 D538G, 3 nM; with MCF7 ERαY537S, 3 nM. The Emax in the test on MCF7 cell was found to be 96%; in the test with MCF7 D538G, 104%; in the test with MCF7 ERαY537S, 102%.
Regarding `CC#CC(=O)N1CCC[C@@H](Oc2ccc(/C(=C(/CC(F)(F)F)c3ccccc3)c3ccc4[nH]nc(F)c4c3)cn2)C1` [Example 25, (R,Z)-1-(3-((5-(4,4,4-Trifluoro-1-(3-fluoro-1H-indazol-5-yl)-2-phenylbut-1-en-1-yl)pyridin-2-yl)oxy)piperidin-1-yl)but-2-yn-1-one], the IC50 was found to be 3 nM in test [1], 0.5 nM with MCF7 cell, 1 nM with MCF7 D538G and 1 nM in the test with MCF7 ERαY537S. Moreover, the Emax with MCF7 cell amounted to 109%; in the test on MCF7 D538G, 112%; with MCF7 ERαY537S it was 107%.
Regarding `C=CC(=O)N1CCC[C@@H](Oc2ccc(/C(=C(/CC(F)(F)F)c3ccccc3)c3ccc4[nH]nc(F)c4c3)cn2)C1` [Example 26, (R,Z)-1-(3-((5-(4,4,4-Trifluoro-1-(3-fluoro-1H-indazol-5-yl)-2-phenylbut-1-en-1-yl)pyridin-2-yl)oxy)piperidin-1-yl)prop-2-en-1-one], the IC50 in test [1] was 3 nM; with MCF7 cell, 0.3 nM; with MCF7 D538G, 1 nM; in the test on MCF7 ERαY537S, 2 nM. The Emax in the test on MCF7 cell was determined as 103%; in the test with MCF7 D538G, 111%; with MCF7 ERαY537S, 104%.
In the case of `CN(C)C(=O)/C=C/CN1CC[C@@H](Oc2ccc(/C(=C(/CC(F)(F)F)c3ccccc3)c3ccc4[nH]nc(F)c4c3)cn2)C1` [Example 29, (E)-N,N-Dimethyl-4-((R)-3-((5-((Z)-4,4,4-trifluoro-1-(3-fluoro-1H-indazol-5-yl)-2-phenylbut-1-en-1-yl)pyridin-2-yl)oxy)pyrrolidin-1-yl)but-2-enamide], the IC50 is 3 nM in test [1], 0.4 nM in the test on MCF7 cell, 3 nM in the test on MCF7 D538G and 2 nM in the test on MCF7 ERαY537S. Also, the Emax in the test on MCF7 cell, in the test on MCF7 D538G and with MCF7 ERαY537S was 93% each time.
For `CN(C)C(=O)/C=C/CN1CCC(Nc2ccc(/C(=C(/CC(F)(F)F)c3ccccc3)c3ccc4[nH]nc(F)c4c3)cn2)CC1` [Example 33, (E)-N,N-Dimethyl-4-(4-((5-((Z)-4,4,4-trifluoro-1-(3-fluoro-1H-indazol-5-yl)-2-phenylbut-1-en-1-yl)pyridin-2-yl)amino)piperidin-1-yl)but-2-enamide], the IC50 in test [1] is 3 nM; in the test on MCF7 cell, 0.3 nM; in the test on MCF7 D538G, 1 nM; in the test on MCF7 ERαY537S, 2 nM. For the same compound, the Emax with MCF7 cell is 105%; with MCF7 D538G it was 106%; in the test on MCF7 ERαY537S, 105%.
With `CN(C)C(=O)/C=C/CN[C@@H]1CCN(c2ccc(/C(=C(/CC(F)(F)F)c3ccccc3)c3ccc4[nH]nc(F)c4c3)cn2)C1` [Example 34, (E)-N,N-Dimethyl-4-(((R)-1-(5-((Z)-4,4,4-trifluoro-1-(3-fluoro-1H-indazol-5-yl)-2-phenylbut-1-en-1-yl)pyridin-2-yl)pyrrolidin-3-yl)amino)but-2-enamide], the IC50 stood at 3 nM in test [1], 0.2 nM in the test on MCF7 cell, 1 nM in the test with MCF7 D538G and 1 nM in the test with MCF7 ERαY537S. Also, the results for the Emax with MCF7 cell, with MCF7 D538G and with MCF7 ERαY537S were 103%, 101% and 105%, respectively.
